In ChEMBL document CHEMBL5291721, “A preclinical secondary pharmacology resource illuminates target-adverse drug reaction associations of marketed drugs” (Nat Commun, 2023):

How the values were obtained:
Mu-type opioid receptor = Mu-type opioid receptor (Homo sapiens, UniProt P35372); assay: biochemical; assay type: functional
[1] = biological target: Voltage-dependent N-type calcium channel subunit alpha-1B (Rattus norvegicus, UniProt Q02294); assay type: functional
[2] = biological target: T1, Corticotropin-releasing factor receptor 1 (Homo sapiens, UniProt P34998)
T1 sequence (P34998 whole entry): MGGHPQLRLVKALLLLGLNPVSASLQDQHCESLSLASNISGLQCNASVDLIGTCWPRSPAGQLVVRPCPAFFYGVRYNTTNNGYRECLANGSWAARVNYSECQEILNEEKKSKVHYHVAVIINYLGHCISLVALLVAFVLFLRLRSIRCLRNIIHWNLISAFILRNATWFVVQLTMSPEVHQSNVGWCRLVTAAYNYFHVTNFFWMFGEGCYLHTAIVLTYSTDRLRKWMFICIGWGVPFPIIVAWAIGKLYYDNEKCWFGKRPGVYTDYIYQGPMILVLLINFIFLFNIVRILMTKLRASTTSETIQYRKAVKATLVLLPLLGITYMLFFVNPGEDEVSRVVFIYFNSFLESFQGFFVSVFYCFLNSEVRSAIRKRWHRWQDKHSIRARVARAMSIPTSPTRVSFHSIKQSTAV

[3] = biological target: 5-hydroxytryptamine receptor 2B (Homo sapiens, UniProt P41595)
D(1A) dopamine receptor [4] = biological target: T2, D(1A) dopamine receptor (Homo sapiens, UniProt P21728)
T2 sequence (P21728 whole entry): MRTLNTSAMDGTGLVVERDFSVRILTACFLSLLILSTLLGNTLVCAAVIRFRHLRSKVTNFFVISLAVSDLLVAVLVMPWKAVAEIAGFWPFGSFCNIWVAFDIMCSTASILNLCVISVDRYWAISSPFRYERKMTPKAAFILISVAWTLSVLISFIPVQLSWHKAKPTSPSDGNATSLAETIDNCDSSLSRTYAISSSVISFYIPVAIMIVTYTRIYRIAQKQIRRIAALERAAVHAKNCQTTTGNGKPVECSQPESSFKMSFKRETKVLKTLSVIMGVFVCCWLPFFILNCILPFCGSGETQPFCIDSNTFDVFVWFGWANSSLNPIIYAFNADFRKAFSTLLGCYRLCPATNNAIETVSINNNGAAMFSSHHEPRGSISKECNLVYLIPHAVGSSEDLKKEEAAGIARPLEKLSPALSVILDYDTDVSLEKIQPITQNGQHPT

Estrogen receptor beta = Estrogen receptor beta (Homo sapiens, UniProt Q92731)
[5] = biological target: T3, Alpha-2A adrenergic receptor (Homo sapiens, UniProt P08913)
T3 sequence (P08913 whole entry): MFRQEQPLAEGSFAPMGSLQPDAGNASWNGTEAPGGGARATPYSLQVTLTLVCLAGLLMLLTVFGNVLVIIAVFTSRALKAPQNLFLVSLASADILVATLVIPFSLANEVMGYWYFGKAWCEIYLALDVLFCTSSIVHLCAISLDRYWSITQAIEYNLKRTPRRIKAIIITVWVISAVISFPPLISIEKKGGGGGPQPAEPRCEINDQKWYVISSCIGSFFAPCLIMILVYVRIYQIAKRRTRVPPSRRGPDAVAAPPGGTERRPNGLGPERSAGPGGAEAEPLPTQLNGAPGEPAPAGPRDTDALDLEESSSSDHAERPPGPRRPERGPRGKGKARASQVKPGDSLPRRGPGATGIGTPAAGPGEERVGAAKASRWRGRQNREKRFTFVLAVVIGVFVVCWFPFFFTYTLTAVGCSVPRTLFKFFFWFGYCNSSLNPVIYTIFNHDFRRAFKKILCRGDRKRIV

Androgen receptor = biological target: T4, Androgen receptor (Homo sapiens, UniProt P10275)
T4 sequence (P10275 whole entry): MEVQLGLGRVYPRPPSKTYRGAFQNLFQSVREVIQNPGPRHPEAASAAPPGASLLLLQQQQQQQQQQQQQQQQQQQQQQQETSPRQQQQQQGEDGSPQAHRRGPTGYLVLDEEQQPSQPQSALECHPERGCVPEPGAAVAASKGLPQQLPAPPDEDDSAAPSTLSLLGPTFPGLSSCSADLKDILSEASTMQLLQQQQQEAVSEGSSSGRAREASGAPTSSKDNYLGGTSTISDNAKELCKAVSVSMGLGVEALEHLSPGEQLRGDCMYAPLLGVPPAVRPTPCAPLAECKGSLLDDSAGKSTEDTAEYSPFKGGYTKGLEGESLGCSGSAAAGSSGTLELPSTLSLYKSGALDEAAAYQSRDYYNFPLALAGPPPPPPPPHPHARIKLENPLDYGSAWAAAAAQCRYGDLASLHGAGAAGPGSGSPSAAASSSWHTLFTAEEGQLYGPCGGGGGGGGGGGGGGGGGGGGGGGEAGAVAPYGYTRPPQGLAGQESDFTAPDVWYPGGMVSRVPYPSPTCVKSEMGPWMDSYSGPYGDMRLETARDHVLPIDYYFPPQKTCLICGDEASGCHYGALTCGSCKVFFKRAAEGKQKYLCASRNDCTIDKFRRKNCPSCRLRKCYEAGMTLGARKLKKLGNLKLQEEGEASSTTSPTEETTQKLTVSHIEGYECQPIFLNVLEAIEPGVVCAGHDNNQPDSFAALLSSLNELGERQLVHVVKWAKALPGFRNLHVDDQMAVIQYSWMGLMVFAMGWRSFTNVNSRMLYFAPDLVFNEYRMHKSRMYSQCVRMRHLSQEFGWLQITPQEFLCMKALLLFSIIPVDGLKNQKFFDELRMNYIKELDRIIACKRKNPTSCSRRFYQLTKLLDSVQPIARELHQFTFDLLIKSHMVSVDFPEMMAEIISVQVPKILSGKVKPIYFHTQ

[6] = biological target: Gamma-aminobutyric acid receptor subunit alpha-1/alpha-2/beta-2/gamma-2 (Homo sapiens, UniProt P14867+P18507+P47869+P47870); assay type: functional, cell-based
Sequence of Gamma-aminobutyric acid receptor subunit alpha-1/alpha-2/beta-2/gamma-2 (P14867 whole entry): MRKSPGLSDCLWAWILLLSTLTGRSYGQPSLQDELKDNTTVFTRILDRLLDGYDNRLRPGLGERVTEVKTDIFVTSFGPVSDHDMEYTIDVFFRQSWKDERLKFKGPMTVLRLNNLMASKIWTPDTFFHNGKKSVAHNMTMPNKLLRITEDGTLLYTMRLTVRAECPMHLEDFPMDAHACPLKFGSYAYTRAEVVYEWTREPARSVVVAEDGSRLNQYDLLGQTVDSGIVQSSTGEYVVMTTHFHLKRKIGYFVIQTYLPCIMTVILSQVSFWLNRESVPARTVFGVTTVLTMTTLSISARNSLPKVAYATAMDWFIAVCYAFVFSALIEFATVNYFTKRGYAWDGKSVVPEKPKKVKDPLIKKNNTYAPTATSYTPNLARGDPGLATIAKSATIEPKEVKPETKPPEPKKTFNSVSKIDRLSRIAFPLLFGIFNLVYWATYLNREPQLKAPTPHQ
Sequence of Gamma-aminobutyric acid receptor subunit alpha-1/alpha-2/beta-2/gamma-2 (P47870 whole entry): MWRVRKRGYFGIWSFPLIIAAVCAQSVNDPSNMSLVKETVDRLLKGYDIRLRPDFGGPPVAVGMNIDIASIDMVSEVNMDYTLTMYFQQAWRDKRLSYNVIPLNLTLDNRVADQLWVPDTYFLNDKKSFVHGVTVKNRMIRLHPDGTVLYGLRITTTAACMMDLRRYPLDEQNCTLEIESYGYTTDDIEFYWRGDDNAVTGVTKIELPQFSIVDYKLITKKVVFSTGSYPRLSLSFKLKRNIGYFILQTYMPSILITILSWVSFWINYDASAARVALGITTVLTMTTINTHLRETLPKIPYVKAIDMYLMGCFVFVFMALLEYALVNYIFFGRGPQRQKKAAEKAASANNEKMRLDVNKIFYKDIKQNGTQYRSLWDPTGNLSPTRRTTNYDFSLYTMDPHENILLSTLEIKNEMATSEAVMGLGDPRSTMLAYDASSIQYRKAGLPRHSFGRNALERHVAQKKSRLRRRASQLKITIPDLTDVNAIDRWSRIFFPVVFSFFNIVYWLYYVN
Sequence of Gamma-aminobutyric acid receptor subunit alpha-1/alpha-2/beta-2/gamma-2 (P18507 whole entry): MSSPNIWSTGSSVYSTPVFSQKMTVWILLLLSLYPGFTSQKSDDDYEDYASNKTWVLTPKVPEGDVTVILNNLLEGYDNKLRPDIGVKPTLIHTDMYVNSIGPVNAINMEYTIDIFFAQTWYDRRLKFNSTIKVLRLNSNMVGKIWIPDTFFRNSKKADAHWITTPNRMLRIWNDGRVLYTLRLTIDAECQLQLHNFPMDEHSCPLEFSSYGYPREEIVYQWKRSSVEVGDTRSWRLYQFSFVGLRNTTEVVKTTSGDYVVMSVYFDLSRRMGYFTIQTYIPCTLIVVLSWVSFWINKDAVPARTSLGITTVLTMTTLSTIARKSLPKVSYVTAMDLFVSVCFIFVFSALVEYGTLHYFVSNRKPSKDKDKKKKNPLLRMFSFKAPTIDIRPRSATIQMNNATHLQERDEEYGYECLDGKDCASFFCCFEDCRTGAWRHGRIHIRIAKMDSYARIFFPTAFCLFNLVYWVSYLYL
Sequence of Gamma-aminobutyric acid receptor subunit alpha-1/alpha-2/beta-2/gamma-2 (P47869 whole entry): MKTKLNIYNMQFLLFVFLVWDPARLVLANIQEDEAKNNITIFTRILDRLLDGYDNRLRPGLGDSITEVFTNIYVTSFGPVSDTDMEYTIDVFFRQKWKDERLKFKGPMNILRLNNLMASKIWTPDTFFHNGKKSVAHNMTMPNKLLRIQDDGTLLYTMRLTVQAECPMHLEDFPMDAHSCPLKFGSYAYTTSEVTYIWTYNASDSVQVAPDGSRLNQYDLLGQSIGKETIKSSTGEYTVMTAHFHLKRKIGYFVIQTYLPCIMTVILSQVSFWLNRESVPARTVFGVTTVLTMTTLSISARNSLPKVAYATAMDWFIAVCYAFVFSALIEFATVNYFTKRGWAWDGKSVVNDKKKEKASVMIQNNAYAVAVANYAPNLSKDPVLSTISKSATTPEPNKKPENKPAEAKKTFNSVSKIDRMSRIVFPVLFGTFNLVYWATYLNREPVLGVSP

D(1A) dopamine receptor [7] = biological target: T2, D(1A) dopamine receptor; assay type: functional, cell-based
Also: assay procedure not described here.

Sequence of Mu-type opioid receptor (P35372 whole entry): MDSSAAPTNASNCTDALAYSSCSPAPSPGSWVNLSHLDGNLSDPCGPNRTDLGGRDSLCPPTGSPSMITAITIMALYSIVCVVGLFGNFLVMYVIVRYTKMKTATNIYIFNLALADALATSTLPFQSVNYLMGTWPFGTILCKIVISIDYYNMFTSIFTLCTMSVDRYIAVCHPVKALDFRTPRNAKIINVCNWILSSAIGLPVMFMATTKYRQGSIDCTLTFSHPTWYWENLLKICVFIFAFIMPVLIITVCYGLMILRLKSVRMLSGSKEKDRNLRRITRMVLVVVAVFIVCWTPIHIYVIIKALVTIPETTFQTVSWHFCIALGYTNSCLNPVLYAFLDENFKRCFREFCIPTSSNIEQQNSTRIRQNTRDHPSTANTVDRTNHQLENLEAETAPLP
Sequence of Voltage-dependent N-type calcium channel subunit alpha-1B (Q02294 whole entry): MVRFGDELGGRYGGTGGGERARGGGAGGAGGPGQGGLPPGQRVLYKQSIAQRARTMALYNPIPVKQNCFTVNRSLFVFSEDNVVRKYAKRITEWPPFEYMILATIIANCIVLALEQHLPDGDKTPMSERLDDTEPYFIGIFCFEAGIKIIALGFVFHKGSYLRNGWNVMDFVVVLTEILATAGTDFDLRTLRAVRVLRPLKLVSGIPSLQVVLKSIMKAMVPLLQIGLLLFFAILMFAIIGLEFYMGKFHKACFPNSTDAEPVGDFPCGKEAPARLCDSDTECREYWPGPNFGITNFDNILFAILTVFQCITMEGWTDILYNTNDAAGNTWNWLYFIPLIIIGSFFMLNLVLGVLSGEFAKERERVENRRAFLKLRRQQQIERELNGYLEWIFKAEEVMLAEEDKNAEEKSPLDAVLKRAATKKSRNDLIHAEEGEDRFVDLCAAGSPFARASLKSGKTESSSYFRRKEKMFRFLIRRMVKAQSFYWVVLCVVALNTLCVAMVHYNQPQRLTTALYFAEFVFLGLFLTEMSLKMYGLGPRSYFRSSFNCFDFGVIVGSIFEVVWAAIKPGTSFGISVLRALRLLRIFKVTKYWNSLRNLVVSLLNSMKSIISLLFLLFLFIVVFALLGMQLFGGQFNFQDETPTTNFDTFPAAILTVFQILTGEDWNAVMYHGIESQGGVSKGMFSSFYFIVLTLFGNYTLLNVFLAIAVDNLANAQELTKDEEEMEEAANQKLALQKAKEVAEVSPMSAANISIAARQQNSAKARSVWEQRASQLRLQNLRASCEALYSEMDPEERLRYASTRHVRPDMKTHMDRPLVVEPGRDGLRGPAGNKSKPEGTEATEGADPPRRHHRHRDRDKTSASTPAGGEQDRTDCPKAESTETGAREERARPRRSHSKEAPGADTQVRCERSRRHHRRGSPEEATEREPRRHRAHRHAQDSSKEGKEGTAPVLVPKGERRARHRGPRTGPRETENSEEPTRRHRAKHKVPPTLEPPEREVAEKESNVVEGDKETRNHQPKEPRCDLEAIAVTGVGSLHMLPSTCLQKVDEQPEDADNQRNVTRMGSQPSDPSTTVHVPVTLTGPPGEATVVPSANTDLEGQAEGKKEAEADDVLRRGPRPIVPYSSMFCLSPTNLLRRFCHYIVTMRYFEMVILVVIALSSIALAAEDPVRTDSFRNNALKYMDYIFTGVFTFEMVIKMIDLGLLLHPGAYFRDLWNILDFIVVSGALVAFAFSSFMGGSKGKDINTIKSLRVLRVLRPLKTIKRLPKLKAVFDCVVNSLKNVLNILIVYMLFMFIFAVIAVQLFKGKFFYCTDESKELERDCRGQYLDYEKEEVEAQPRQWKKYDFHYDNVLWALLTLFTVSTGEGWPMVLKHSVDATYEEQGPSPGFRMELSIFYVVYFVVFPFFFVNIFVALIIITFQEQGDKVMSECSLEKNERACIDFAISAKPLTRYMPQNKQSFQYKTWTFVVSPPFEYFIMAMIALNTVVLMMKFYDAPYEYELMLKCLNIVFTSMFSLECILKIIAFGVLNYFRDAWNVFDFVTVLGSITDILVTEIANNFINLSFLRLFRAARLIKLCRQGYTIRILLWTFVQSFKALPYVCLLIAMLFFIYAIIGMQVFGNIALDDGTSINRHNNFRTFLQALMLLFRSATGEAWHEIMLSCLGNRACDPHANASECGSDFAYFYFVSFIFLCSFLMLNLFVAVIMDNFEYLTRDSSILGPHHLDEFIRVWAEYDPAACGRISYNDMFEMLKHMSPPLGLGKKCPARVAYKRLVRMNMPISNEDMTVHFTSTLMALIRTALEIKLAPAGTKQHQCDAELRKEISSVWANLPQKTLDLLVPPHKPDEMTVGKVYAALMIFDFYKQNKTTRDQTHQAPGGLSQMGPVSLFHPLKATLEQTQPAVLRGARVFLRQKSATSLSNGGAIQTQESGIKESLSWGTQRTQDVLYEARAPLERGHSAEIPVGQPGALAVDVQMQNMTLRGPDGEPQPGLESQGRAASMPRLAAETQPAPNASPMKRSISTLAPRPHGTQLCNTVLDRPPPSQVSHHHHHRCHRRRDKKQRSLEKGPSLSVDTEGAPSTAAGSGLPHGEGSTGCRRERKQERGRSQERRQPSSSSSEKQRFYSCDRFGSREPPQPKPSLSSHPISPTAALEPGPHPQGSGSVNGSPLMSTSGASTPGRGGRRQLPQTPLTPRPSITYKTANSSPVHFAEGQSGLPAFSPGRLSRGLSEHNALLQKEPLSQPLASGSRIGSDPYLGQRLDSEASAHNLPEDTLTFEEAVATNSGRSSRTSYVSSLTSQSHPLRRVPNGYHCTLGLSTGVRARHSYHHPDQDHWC

Work on CC1(C)NC(=O)N(c2ccc([N+](=O)[O-])c(C(F)(F)F)c2)C1=O [NILUTAMIDE] yielded an AC50 (Mu-type opioid receptor) greater than 30 µM.
For CCOC(=O)[C@H](CCc1ccccc1)N[C@@H](C)C(=O)N1[C@H](C(=O)O)C[C@@H]2CCC[C@@H]21, the AC50 [1] was greater than 10 µM, the AC50 [2] was greater than 30 µM and the AC50 [3] was greater than 10 µM. It also gave an AC50 (D(1A) dopamine receptor [4]) greater than 10 µM, an AC50 (Estrogen receptor beta) greater than 30 µM and an AC50 [5] greater than 10 µM.
In the case of Cc1nc([N+](=O)[O-])cn1-c1ccc([N+](=O)[O-])cc1 [NITREFAZOLE], the AC50 (Mu-type opioid receptor) is reported as greater than 30 µM.
Work on CCCCCCOc1nsnc1C1=CCCN(C)C1 [XANOMELINE] yielded an AC50 (Androgen receptor) greater than 30 µM.
For O=C(O)c1cc(O)ccc1O [GENTISIC ACID], the AC50 (Androgen receptor) was greater than 30 µM.
CC(C)Nc1ncccn1 [ISAXONINE] gave an AC50 (Androgen receptor) greater than 30 µM.
For CC(=O)Nc1ccc(O)cc1 [ACETAMINOPHEN], the AC50 (Androgen receptor) was greater than 30 µM and the AC50 [6] was greater than 30 µM.
In the case of COc1cc2nc(N(C)CCCNC(=O)C3CCCO3)nc(N)c2cc1OC (stereo unspecified) [ALFUZOSIN], the AC50 (Mu-type opioid receptor) is reported as greater than 30 µM.
In the case of CCOC(=O)[C@H](CCc1ccccc1)N[C@@H](C)C(=O)N1[C@H](C(=O)O)C[C@H]2CCCC[C@@H]21 [TRANDOLAPRIL], the AC50 (Androgen receptor) is reported as greater than 30 µM.
Compound Nc1nc(NC2CC2)c2ncn([C@H]3C=C[C@@H](CO)C3)c2n1 [ABACAVIR] has an AC50 (Mu-type opioid receptor) greater than 30 µM and an AC50 [6] greater than 30 µM.
For CN1C(=O)CCS(=O)(=O)C1c1ccc(Cl)cc1 (stereo unspecified) [CHLORMEZANONE], the AC50 (Mu-type opioid receptor) was greater than 30 µM.
With Cc1cn([C@H]2C[C@H](N=[N+]=[N-])[C@@H](CO)O2)c(=O)[nH]c1=O [ZIDOVUDINE] the AC50 [1] was greater than 10 µM, the AC50 [2] was greater than 30 µM and the AC50 (D(1A) dopamine receptor [4]) was greater than 10 µM. For the same compound, the AC50 [5] was greater than 10 µM.
Compound CN(C)CCC(c1ccc(Cl)cc1)c1ccccn1 (stereo unspecified) [CHLORPHENIRAMINE] has an AC50 [1] greater than 10 µM, an AC50 [2] greater than 30 µM and an AC50 [3] of 4.06 µM. For the same compound, the AC50 (D(1A) dopamine receptor [4]) was greater than 10 µM and the AC50 [5] was greater than 10 µM.
For Cc1cc(C#N)cc(C)c1Oc1nc(Nc2ccc(C#N)cc2)nc(N)c1Br [ETRAVIRINE], the AC50 (Androgen receptor) was greater than 30 µM.
CC(=O)NCCCS(=O)(=O)O [ACAMPROSATE] was tested, and the AC50 (Mu-type opioid receptor) was greater than 30 µM.
For COCc1c(C(C)C)nc(C(C)C)c(/C=C/[C@@H](O)C[C@@H](O)CC(=O)O)c1-c1ccc(F)cc1 [CERIVASTATIN], the AC50 (Androgen receptor) was greater than 30 µM.
COc1ccccc1OCC(O)CN1CCN(CC(=O)Nc2c(C)cccc2C)CC1 (stereo unspecified) [RANOLAZINE] was tested, and the AC50 (Mu-type opioid receptor) was greater than 30 µM and the AC50 [5] was 13 µM.
In the case of CC1=C(C(=O)O)N2C(=O)[C@@H](NC(=O)[C@H](N)c3ccccc3)[C@H]2SC1 [CEPHALEXIN ANHYDROUS], the AC50 [1] is reported as greater than 10 µM, the AC50 [2] is reported as greater than 30 µM and the AC50 (Estrogen receptor beta) is reported as greater than 30 µM. It also gave an AC50 [5] greater than 10 µM.
With O=C(OCC(O)CO)c1ccccc1Nc1ccnc2cc(Cl)ccc12 (stereo unspecified) [GLAFENINE] the AC50 (Androgen receptor) was greater than 30 µM, the AC50 (D(1A) dopamine receptor [7]) was greater than 30 µM and the AC50 [6] was greater than 30 µM.
CN(C)CC(c1ccc(O)cc1)C1(O)CCCCC1 (stereo unspecified) [DESVENLAFAXINE] showed an AC50 (Androgen receptor) greater than 30 µM.
In the case of CN(C)CCn1nnnc1SCC1=C(C(=O)O)N2C(=O)[C@@H](NC(=O)Cc3csc(N)n3)[C@H]2SC1 [CEFOTIAM], the AC50 (Androgen receptor) is reported as greater than 30 µM.
